This note sets out measurements from patent US20200347033A1, “MODULATORS OF THE INTEGRATED STRESS PATHWAY” (Calico Life Sciences LLC, priority 2017, published 2020).

For orientation: EC50 means the concentration that produces a half-maximal response.

The structures appear in SMILES notation.

The assay deals with HEK293T cells carrying the ATF4 luciferase reporter. Description: ATF4-Luc assay (in vitro model of vanishing white matter disease). The class given is cell-based, human. The settings on record: Homo sapiens, HEK-293T; HEK293T cells with ATF4 5'-UTR firefly luciferase reporter; 1 μg/mL tunicamycin; 7 hours; One Glo luminescence. How it is done: In order to test exemplary compounds of the invention in a cellular context, a stable VWMD cell line was first constructed. The ATF4 reporter was prepared by fusing the human full-length ATF4 5′-UTR (NCBI Accession No. BC022088.2) in front of the firefly luciferase (FLuc) coding sequence lacking the initiator methionine as described in Sidrauski et al (eLife 2013). The construct was used to produce recombinant retroviruses using standard methods and the resulting viral supernatant was used to transduce HEK293T cells, which were then subsequently selected with puromycin to generate a stable cell line.
HEK293T cells carrying the ATF4 luciferase reporter were plated on polylysine coated 384-well plates (Greiner Bio-one) at 30,000 cells per well. Cells were treated the next day with 1 μg/mL tunicamycin and 200 nM of a compound of Formula (I) for 7 hours. Luminescence was measured using One Glo (Promega) as specified by the manufacturer. Cells were maintained in DMEM with L-glutamine supplemented with 10% heat-inactivated FBS (Gibco) and Antibiotic-Antimycotic solution (Gibco).
Table 2 below summarizes the EC50 data obtained using the ATF4-Luc assay for exemplary compounds of the invention.
Take `O=C(COc1ccc(Cl)c(F)c1)NC12CC(N3CC[C@@H](Oc4ccc(Cl)cc4)C3=O)(C1)C2` (single isomer, unassigned) [Compound 102]: the concentration giving a half-maximal response (EC50) lay in the range of 250 to 1000 nM. `O=C(COc1ccc(Cl)c(F)c1)NC12CC(n3c(=O)c4ccc(Cl)cc4n(CCO)c3=O)(C1)C2` [Compound 138, 2-(4-chloro-3-fluorophenoxy)-N-{3-[7-chloro-1-(2-hydroxyethyl)-2,4-dioxo-1,4-dihydroquinazolin-3(2H)-yl]bicyclo[1.1.1]pentan-1-yl}acetamide]: the EC50 is 50 to 250 nM. The result for `O=C(COc1ccc(Cl)c(F)c1)NC12CC(N3CC[C@H](Oc4ccc(Cl)cc4)C3=O)(C1)C2` (single isomer, unassigned) [Compound 103] reads 50 to 250 nM. The result for `O=C(COc1ccc2c(c1)OC(F)(F)O2)N[C@H]1CC[C@H](N2CCN(c3ccc(C(F)F)cn3)C2=O)CC1` [Compound 128, 2-[(2,2-difluoro-2H-1,3-benzodioxol-5-yl)oxy]-N-[(1r,4r)-4-{3-[5-(difluoromethyl)pyridin-2-yl]-2-oxoimidazolidin-1-yl}cyclohexyl]acetamide] reads 50 to 250 nM; that for `O=C(COc1ccc(Cl)c(F)c1)NC12CC(N3C(=O)OC(c4ccc(F)cc4)C3=O)(C1)C2` (centres unmarked) [Compound 158, 2-(4-chloro-3-fluorophenoxy)-N-{3-[5-(4-fluorophenyl)-2,4-dioxo-,3-oxazolidin-3-yl]bicyclo[1.1.1]pentan-1-yl}acetamide], 1000 to 2000 nM. The result for `O=C(COc1ccc(Cl)c(F)c1)N[C@H]1CC[C@H](N2CCN(c3ccc(C(F)F)cn3)C2=O)CC1` [Compound 133, 2-(4-chloro-3-fluorophenoxy)-N-[(1r,4r)-4-{3-[5-(difluoromethyl)pyridin-2-yl]-2-oxoimidazolidin-1-yl}cyclohexyl]acetamide] reads below 50 nM. Consider `Cc1csc(N2CCN([C@H]3CC[C@H](NC(=O)COc4ccc(Cl)c(F)c4)CC3)C2=O)n1` [Compound 131, 2-(4-chloro-3-fluorophenoxy)-N-{(1r,4r)-4-[3-(4-methyl-1,3-thiazol-2-yl)-2-oxoimidazolidin-1-yl]cyclohexyl}acetamide], for which the EC50 is 250 to 1000 nM. As to `O=C(COc1ccc(Cl)c(Cl)c1)N[C@H]1CC[C@H](N2CCN(c3cnc(C(F)F)cn3)C2=O)CC1` [Compound 120, 2-(3,4-dichlorophenoxy)-N-[(1r,4r)-4-{3-[5-(difluoromethyl)pyrazin-2-yl]-2-oxoimidazolidin-1-yl}cyclohexyl]acetamide], the EC50 is below 50 nM. The result for `Cc1cc(OC2CCN(C34CC(NC(=O)COc5ccc(Cl)c(F)c5)(C3)C4)C2=O)no1` (centres unmarked) [Compound 105, 2-(4-chloro-3-fluorophenoxy)-N-(3-{3-[(5-methyl-1,2-oxazol-3-yl)oxy]-2-oxopyrrolidin-1-yl}bicyclo[1.1.1]pentan-1-yl)acetamide] reads above 2000 nM. As for `O=C(COc1ccc(Cl)c(F)c1)NC12CC(N3CCN(c4ccc(Cl)cc4)C3=O)(C1)C2` [Compound 114, 2-(4-chloro-3-fluorophenoxy)-N-{3-[3-(4-chlorophenyl)-2-oxoimidazolidin-1-yl]bicyclo[1.1.1]pentan-1-yl}acetamide], the EC50 is below 50 nM. The result for `O=C(COc1ccc(Cl)c(F)c1)NC12CC(N3C(=O)OC[C@@H]3c3ccc(Cl)c(Cl)c3)(C1)C2` [Compound 110, 2-(4-chloro-3-fluorophenoxy)-N-{3-[(4S)-4-(3,4-dichlorophenyl)-2-oxo-1,3-oxazolidin-3-yl]bicyclo[1.1.1]pentan-1-yl}acetamide] reads above 2000 nM; that for `O=C(COc1ccc(Cl)c(F)c1)NC12CCC(N3CC(c4ccc(Cl)c(F)c4)=CC3=O)(CC1)C[C@@H]2O` [Compound 109, 2-(4-chloro-3-fluorophenoxy)-N-{(2S)-4-[4-(4-chloro-3-fluorophenyl)-2-oxo-2,5-dihydro-1H-pyrrol-1-yl]-2-hydroxybicyclo[2.2.2]octan-1-yl}acetamide], below 50 nM; that for `O=C(N[C@H]1CC[C@H](N2CCN(c3cnc(C(F)F)cn3)C2=O)CC1)OCc1ccccc1` [Compound 122, benzyl [(1r,4r)-4-{3-[5-(difluoromethyl)pyrazin-2-yl]-2-oxoimidazolidin-1-yl}cyclohexyl]carbamate], above 2000 nM. Consider `O=C(COc1ccc(Cl)c(F)c1)NC12CCC(N3CC(c4ccc(Cl)c(F)c4)CC3=O)(CC1)C[C@@H]2O` (stereo partly drawn) [Compound 163, 2-(4-chloro-3-fluorophenoxy)-N-{(2S)-4-[4-(4-chloro-3-fluorophenyl)-2-oxopyrrolidin-1-yl]-2-hydroxybicyclo[2.2.2]octan-1-yl}acetamide], for which the EC50 is below 50 nM. The result for `O=C(N[C@H]1CC[C@H](N2CCN(c3ccc(C(F)F)cn3)C2=O)CC1)c1ccc(OC(F)(F)F)cn1` [Compound 124, N-[(1r,4r)-4-{3-[5-(difluoromethyl)pyridin-2-yl]-2-oxoimidazolidin-1-yl}cyclohexyl]-5-(trifluoromethoxy)pyridine-2-carboxamide] reads above 2000 nM; that for `O=C(COc1ccc(Cl)c(F)c1)NC12CC(N3CCN(c4ccc(C(F)F)cn4)C3=O)(C1)C2` [Compound 147, 2-(4-chloro-3-fluorophenoxy)-N-(3-{3-[5-(difluoromethyl)pyridin-2-yl]-2-oxoimidazolidin-1-yl}bicyclo[1.1.1]pentan-1-yl)acetamide], below 50 nM; that for `O=C(COc1ccc(Cl)c(F)c1)NC12CC(N3C[C@@H](c4ccc(Cl)c(F)c4)OC3=O)(C1)C2` (single isomer, unassigned) [Compound 157], 50 to 250 nM. The result for `O=C(COc1ccc(Cl)c(F)c1)NC12CCC(N3CCN(c4ccc(Cl)c(F)c4)C3=O)(CC1)CC2O` (centres unmarked) [Compound 146, 2-(4-chloro-3-fluorophenoxy)-N-{4-[3-(4-chloro-3-fluorophenyl)-2-oxoimidazolidin-1-yl]-2-hydroxybicyclo[2.2.2]octan-1-yl}acetamide] reads below 50 nM; that for `O=C(COc1ccc(Cl)c(F)c1)NC12CC(N3CCC(c4ccc(F)c(F)c4)OC3=O)(C1)C2` (centres unmarked) [Compound 112, 2-(4-chloro-3-fluorophenoxy)-N-{3-[6-(3,4-difluorophenyl)-2-oxo-1,3-oxazinan-3-yl]bicyclo[1.1.1]pentan-1-yl}acetamide], above 2000 nM. The result for `O=C(COc1ccc(Cl)c(Cl)c1)NC12CC(N3CCN(Cc4ccc(Cl)cc4)C3=O)(C1)C2` [Compound 111, N-(3-{3-[(4-chlorophenyl)methyl]-2-oxoimidazolidin-1-yl}bicyclo[1.1.1]pentan-1-yl)-2-(3,4-dichlorophenoxy)acetamide] reads above 2000 nM; that for `O=C(COc1ccc(Cl)c(F)c1)NC12CC(N3C(=O)c4ccc(Cl)cc4[C@@H]3O)(C1)C2` (single isomer, unassigned) [Compound 150], 1000 to 2000 nM; that for `O=C(CCOc1ccc(Cl)cc1)N[C@H]1CC[C@H](N2CCN(c3cnc(C(F)F)cn3)C2=O)CC1` [Compound 118, 3-(4-chlorophenoxy)-N-[(1r,4r)-4-{3-[5-(difluoromethyl)pyrazin-2-yl]-2-oxoimidazolidin-1-yl}cyclohexyl]propanamide], above 2000 nM. For the compound `O=C(COc1ccc(Cl)c(F)c1)NC12CC(N3CCC(Oc4ccc(Cl)c(F)c4)C3=O)(C1)C2` (centres unmarked) [Compound 100, 2-(4-chloro-3-fluorophenoxy)-N-{3-[3-(4-chloro-3-fluorophenoxy)-2-oxopyrrolidin-1-yl]bicyclo[1.1.1]pentan-1-yl}acetamide], the concentration giving a half-maximal response (EC50) lay within 50 to 250 nM. The result for `O=C(NC12CC(N3CC(c4ccc(Cl)c(F)c4)OC3=O)(C1)C2)c1cnc(C(F)F)cn1` (centres unmarked) [Compound 166, N-{3-[5-(4-chloro-3-fluorophenyl)-2-oxo-1,3-oxazolidin-3-yl]bicyclo[1.1.1]pentan-1-yl}-5-(difluoromethyl)pyrazine-2-carboxamide] reads above 2000 nM; that for `O=C(N[C@H]1CC[C@H](N2CCN(c3ccc(C(F)F)cn3)C2=O)CC1)c1ccc(Cl)c(F)c1` [Compound 123, 4-chloro-N-[(1r,4r)-4-{3-[5-(difluoromethyl)pyridin-2-yl]-2-oxoimidazolidin-1-yl}cyclohexyl]-3-fluorobenzamide], above 2000 nM; that for `Cn1cc(OC2CCN(C34CC(NC(=O)COc5ccc(Cl)c(F)c5)(C3)C4)C2=O)cn1` (centres unmarked) [Compound 106, 2-(4-chloro-3-fluorophenoxy)-N-(3-{3-[(1-methyl-H-pyrazol-4-yl)oxy]-2-oxopyrrolidin-1-yl}bicyclo[1.1.1]pentan-1-yl)acetamide], above 2000 nM.

As for `O=C(COc1ccc(Cl)c(F)c1)NC12CC(N3CC(c4ccc(Cl)c(F)c4)OC3=O)(C1)C2` (centres unmarked) [Compound 116, 2-(4-chloro-3-fluorophenoxy)-N-{3-[5-(4-chloro-3-fluorophenyl)-2-oxo-1,3-oxazolidin-3-yl]bicyclo[1.1.1]pentan-1-yl}acetamide], the EC50 lay in the range of 50 to 250 nM. The result for `O=C(COc1ccc(Cl)c(F)c1)NC12CCC(N3CC[C@@H](c4ccc(Cl)cc4)C3=O)(CC1)C[C@@H]2O` (single isomer, unassigned) [Compound 154] reads 250 to 1000 nM; that for `O=C(COc1ccc(OC(F)(F)F)cc1)N[C@H]1CC[C@H](N2CCN(c3ccc(C(F)F)cn3)C2=O)CC1` [Compound 127, N-[(1r,4r)-4-{3-[5-(difluoromethyl)pyridin-2-yl]-2-oxoimidazolidin-1-yl}cyclohexyl]-2-[4-(trifluoromethoxy)phenoxy]acetamide], 250 to 1000 nM.
